Data set [1] concerns the target T1, Aryl hydrocarbon receptor (Homo sapiens, UniProt P35869).
T1 sequence (P35869 whole entry): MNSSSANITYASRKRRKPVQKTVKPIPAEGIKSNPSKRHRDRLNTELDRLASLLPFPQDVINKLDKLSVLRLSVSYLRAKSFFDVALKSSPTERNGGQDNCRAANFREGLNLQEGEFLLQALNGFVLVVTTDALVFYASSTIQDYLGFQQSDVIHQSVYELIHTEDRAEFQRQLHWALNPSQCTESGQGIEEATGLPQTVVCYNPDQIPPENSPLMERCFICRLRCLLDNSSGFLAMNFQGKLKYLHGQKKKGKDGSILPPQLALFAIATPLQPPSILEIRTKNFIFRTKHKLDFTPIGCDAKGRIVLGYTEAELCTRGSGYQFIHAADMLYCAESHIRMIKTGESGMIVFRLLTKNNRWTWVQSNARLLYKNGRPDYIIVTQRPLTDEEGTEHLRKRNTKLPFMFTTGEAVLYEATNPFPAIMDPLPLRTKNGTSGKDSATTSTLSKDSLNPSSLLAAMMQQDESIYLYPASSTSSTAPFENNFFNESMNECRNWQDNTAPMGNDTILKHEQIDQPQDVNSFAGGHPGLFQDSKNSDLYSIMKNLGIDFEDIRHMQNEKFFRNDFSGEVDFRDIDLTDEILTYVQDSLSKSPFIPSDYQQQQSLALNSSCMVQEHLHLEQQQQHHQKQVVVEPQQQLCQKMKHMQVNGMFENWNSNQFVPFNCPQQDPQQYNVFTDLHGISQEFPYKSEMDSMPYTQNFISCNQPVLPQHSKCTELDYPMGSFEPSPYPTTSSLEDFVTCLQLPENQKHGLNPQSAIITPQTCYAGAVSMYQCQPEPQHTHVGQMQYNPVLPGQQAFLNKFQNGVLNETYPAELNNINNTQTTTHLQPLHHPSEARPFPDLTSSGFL
Kind of data set: Antagonist activity at human AhR expressed in Saccharomyces cerevisiae W303-1A (ATCC 208352) transformed with an episomal plasmid containing a minimal CYC1 promoter, with a concatemer of five XRE enhancer sequences, linked to eGFP reporter gene and co-expressing ARNT assessed as inhibition of B[a]P agonist induced XRE-driven eGFP expression by measuring eGFP units at 10 uM after 18 hrs by …. A general note: A reporter such as luciferase makes a cellular process visible.

For data set [2], the target named is T1, Aryl hydrocarbon receptor. Kind of data set: Antagonist activity at human AhR expressed in Saccharomyces cerevisiae W303-1A (ATCC 208352) transformed with an episomal plasmid containing a minimal CYC1 promoter, with a concatemer of five XRE enhancer sequences, linked to eGFP reporter gene and co-expressing ARNT assessed as inhibition of B[a]P agonist induced XRE-driven eGFP expression by measuring eGFP units at 1 uM after 18 hrs by ….

The target of data set [3] is T2, Cytochrome P450 1A2 (Homo sapiens, UniProt P05177).
T2 sequence (P05177 whole entry): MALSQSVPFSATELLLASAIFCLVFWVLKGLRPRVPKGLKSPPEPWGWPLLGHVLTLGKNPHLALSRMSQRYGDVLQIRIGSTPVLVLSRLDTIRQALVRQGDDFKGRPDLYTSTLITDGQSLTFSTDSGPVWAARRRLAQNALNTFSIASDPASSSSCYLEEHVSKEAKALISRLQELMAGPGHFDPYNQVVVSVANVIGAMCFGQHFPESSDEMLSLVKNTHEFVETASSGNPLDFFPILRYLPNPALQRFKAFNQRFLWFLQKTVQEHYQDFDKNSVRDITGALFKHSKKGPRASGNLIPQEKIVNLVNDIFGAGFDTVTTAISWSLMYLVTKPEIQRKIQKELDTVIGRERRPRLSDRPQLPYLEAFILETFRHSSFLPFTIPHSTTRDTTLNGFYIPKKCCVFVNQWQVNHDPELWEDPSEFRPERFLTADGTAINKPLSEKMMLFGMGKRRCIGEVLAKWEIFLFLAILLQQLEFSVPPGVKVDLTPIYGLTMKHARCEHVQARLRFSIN
The data set can be described thus: Inhibition of human CYP1A2 bound to yeast microsomal membrane using 3-cyano-7-ethoxycoumarin as substrate after 10 mins by fluorescence assay.

In data set [4] the target is T3, Cytochrome P450 2D6 (Homo sapiens, UniProt P10635). The data set can be described thus: Inhibition of human CYP2D6 bound to yeast microsomal membrane using 7-ethoxy-methyloxy-3-cyanocoumarin as substrate after 10 mins by fluorescence assay. Format: ADME.
T3 sequence (P10635 whole entry): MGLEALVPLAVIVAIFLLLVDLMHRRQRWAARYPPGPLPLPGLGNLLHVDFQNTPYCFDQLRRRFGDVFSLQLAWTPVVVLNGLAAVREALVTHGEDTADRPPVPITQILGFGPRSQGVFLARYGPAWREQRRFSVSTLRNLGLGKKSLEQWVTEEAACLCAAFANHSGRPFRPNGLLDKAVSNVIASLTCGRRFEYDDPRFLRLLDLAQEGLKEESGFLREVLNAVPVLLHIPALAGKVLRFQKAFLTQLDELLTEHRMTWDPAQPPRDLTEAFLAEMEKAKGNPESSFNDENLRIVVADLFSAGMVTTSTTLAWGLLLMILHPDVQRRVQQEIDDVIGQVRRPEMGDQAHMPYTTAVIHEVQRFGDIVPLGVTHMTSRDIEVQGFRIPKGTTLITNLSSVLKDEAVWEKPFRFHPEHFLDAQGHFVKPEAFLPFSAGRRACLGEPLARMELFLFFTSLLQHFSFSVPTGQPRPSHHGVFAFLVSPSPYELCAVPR
The next data set concerns the target T4, Cytochrome P450 1A1 (Homo sapiens, UniProt P04798).
T4 sequence (P04798 whole entry): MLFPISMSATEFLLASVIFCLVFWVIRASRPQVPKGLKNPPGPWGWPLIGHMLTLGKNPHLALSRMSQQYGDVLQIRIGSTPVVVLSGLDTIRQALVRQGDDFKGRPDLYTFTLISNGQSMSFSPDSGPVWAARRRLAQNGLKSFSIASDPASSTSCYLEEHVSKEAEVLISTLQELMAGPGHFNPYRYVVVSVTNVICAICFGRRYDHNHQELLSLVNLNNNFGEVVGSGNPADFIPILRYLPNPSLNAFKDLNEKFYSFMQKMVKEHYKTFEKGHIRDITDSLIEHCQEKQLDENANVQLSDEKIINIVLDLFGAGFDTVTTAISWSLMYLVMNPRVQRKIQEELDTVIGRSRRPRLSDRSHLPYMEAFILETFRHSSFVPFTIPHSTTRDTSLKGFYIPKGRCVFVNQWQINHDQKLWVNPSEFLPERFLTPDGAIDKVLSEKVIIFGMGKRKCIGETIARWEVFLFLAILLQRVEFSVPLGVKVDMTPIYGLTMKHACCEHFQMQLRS
Kind of data set: Inhibition of human CYP1A1 expressed in HEK293 cells using fluorogenic substrate 7-ethoxyresorufin as substrate preincubated for 30 mins followed by substrate addition measured for 60 mins by fluorescence assay. Format: cell-based.

Data set [5] concerns the target T2, Cytochrome P450 1A2. Kind of data set: Inhibition of human CYP1A2 expressed in HEK293 cells using fluorogenic 3-cyano-7-ethoxycoumarin as substrate preincubated for 30 mins followed by substrate addition measured for 60 mins by fluorescence assay. The class given is cell-based.
Data set [6] deals with T3, Cytochrome P450 2D6. The data set can be described thus: Inhibition of human CYP2D6 expressed in HEK293 cells using fluorogenic 7-ethoxy-methyloxy-3-cyanocoumarin as substrate preincubated for 30 mins followed by substrate addition measured for 60 mins by fluorescence assay. The class given is ADME, cell-based.
Another data set concerns the target Cytochrome P450 2C9 (Homo sapiens, UniProt P11712). Kind of data set: Inhibition of human CYP2C9 expressed in HEK293 cells using fluorogenic 3-cyano-7-ethoxycoumarin as preincubated for 30 mins followed by substrate addition measured for 60 mins by fluorescence assay. Format: ADME, cell-based.
The next data set deals with Cytochrome P450 2C19 (Homo sapiens, UniProt P33261). Kind of data set: Inhibition of human CYP2C19 expressed in HEK293 cells using fluorogenic 3-cyano-7-ethoxycoumarin as substrate preincubated for 30 mins followed by substrate addition measured for 60 mins by fluorescence assay. The class given is ADME, cell-based.
Chain of Cytochrome P450 2C19 (P33261 whole entry): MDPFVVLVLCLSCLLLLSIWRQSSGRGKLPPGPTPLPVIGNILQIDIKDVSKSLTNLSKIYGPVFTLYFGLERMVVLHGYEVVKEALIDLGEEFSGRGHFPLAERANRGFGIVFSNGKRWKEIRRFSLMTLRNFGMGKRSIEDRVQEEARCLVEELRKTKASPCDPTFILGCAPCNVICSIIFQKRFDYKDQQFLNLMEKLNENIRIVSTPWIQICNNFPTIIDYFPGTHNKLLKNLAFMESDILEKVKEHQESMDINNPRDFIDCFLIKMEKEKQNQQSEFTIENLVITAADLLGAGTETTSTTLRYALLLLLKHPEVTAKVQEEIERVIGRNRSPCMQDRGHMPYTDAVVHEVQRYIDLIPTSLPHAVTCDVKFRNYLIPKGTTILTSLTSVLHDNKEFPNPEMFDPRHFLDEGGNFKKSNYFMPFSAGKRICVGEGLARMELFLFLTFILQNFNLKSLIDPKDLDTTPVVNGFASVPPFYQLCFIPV
The target in a further data set is Cytochrome P450 3A4 (Homo sapiens, UniProt P08684). The data set can be described thus: Inhibition of human CYP3A4 expressed in HEK293 cells using fluorogenic dibenzylfluorescein as substrate preincubated for 30 mins followed by substrate addition measured for 60 mins by fluorescence assay. Format: ADME, cell-based.
Chain of Cytochrome P450 3A4 (P08684 whole entry): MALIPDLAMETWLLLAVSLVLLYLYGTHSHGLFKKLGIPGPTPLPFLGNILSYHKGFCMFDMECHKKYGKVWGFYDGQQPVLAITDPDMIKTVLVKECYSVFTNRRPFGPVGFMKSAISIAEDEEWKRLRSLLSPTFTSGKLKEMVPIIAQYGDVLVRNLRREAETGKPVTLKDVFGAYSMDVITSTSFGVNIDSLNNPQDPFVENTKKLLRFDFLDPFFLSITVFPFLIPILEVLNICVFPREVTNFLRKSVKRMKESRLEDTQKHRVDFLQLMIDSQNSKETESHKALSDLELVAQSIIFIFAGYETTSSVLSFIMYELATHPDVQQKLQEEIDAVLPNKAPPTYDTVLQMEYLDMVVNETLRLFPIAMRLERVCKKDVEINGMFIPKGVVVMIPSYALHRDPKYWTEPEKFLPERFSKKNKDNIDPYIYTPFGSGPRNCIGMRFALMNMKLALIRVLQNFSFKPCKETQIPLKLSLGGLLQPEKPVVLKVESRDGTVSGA

Chain of Cytochrome P450 2C9 (P11712 whole entry): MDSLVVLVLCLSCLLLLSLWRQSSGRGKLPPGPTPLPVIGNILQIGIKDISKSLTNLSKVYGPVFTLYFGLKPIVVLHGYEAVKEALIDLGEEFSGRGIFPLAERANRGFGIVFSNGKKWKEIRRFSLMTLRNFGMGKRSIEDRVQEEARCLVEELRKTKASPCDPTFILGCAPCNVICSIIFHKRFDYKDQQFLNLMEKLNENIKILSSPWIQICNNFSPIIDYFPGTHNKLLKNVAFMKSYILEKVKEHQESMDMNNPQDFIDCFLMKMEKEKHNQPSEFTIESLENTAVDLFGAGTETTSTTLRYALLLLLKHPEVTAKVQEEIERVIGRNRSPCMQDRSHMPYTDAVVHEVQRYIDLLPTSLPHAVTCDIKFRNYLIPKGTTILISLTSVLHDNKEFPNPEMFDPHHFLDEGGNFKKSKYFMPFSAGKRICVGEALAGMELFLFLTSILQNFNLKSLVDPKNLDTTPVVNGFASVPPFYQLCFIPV

As to `O=C(/C=C/c1ccc(OC(F)(F)F)cc1)c1ccc[nH]1`, the Activity in data set [1] and in [2] was 955 U each time. Besides, the IC50 (as a rule, the concentration needed to halve the response being measured) at Cytochrome P450 1A2 [3] was more than 20 µM; against Cytochrome P450 2D6 [4], 16 µM; on Cytochrome P450 1A1, more than 20 µM; at Cytochrome P450 1A2 [5] it was more than 20 µM; against Cytochrome P450 2D6 [6] it was more than 20 µM; on Cytochrome P450 2C9, more than 20 µM. Besides, the IC50 at Cytochrome P450 2C19 and at Cytochrome P450 3A4 was more than 20 µM each time.

In the case of `COc1ccccc1/C=C/C(=O)c1ccc[nH]1`, the figures for the Activity in [1] and in data set [2] were 150 U and 600 U, respectively. The IC50 is 1.1 µM against Cytochrome P450 1A2 [3]; 20 µM at Cytochrome P450 2D6 [4]; 1.2 µM at Cytochrome P450 1A1; 1.1 µM at Cytochrome P450 1A2 [5]; 20 µM on Cytochrome P450 2D6 [6]; more than 10 µM against Cytochrome P450 2C9. Besides, the IC50 on Cytochrome P450 2C19 and against Cytochrome P450 3A4 was more than 10 µM each time.

For `O=C(/C=C/c1ccccc1Cl)c1ccc[nH]1`, the Activity in [1] is recorded as 455 U; in [2], 920 U. For the same compound, the IC50 against Cytochrome P450 1A2 [3] is 0.7 µM; at Cytochrome P450 2D6 [4] it was 12 µM; on Cytochrome P450 1A1 it was more than 20 µM; at Cytochrome P450 1A2 [5], 0.9 µM; on Cytochrome P450 2D6 [6], more than 10 µM; against Cytochrome P450 2C9 it was more than 10 µM. In addition, the IC50 on Cytochrome P450 2C19 and on Cytochrome P450 3A4 was more than 10 µM in each case.

Source of the values: ChEMBL document CHEMBL4052762, “Synthesis and biological evaluation of pyrrole-based chalcones as CYP1 enzyme inhibitors, for possible prevention of cancer and overcoming cisplatin resistance” (Bioorg Med Chem Lett, 2017).
